# From PMC6331909, “Identification of Eupatilin from Artemisia argyi as a Selective PPARα Agonist Using Affinity Selection Ultrafiltration LC-MS” (Molecules, 2015)
# What was measured:
# PPARα [1] = target: T1, PPARα (Homo sapiens, UniProt Q07869); assay: TR-FRET competitive binding assay
# T1 construct: gene PPARA
# T1 sequence (Q07869 196-468 limits assumed): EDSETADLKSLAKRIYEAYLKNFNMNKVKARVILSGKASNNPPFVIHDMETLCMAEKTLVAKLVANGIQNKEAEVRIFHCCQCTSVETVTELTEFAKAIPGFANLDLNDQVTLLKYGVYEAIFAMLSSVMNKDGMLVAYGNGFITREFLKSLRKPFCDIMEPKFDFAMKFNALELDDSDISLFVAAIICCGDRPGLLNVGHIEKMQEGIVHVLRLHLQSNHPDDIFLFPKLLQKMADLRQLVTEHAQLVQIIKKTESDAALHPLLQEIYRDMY
# PPARγ = target: T2, PPARγ (Homo sapiens, UniProt P37231); assay: TR-FRET competitive binding assay
# T2 construct: gene PPARG
# T2 sequence (P37231 232-505 limits assumed): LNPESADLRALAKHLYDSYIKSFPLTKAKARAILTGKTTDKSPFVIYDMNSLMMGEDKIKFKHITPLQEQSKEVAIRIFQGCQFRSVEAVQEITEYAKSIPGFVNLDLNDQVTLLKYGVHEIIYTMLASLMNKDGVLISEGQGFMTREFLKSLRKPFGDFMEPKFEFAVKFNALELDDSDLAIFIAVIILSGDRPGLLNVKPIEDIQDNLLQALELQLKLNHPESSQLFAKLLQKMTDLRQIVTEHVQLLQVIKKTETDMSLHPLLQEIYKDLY
# PPARα [2] = target: T1, PPARα; assay: TR-FRET competitive binding assay; also ultrafiltration LC-MS and cell transactivation
smiles,measurement,setting,value
CCC(=O)NC[C@H](Cc1ccc(OCCc2nc(-c3ccccc3)oc2C)cc1)N/C(C)=C\C(=O)c1ccc(C(F)(F)F)cc1 [GW6471],IC50,PPARα [1],227 nM
O=C(Nc1ccccc1)c1cc([N+](=O)[O-])ccc1Cl [GW9662],IC50,PPARγ,24.3 nM
COc1ccc(-c2cc(=O)c3c(O)c(OC)c(O)cc3o2)cc1OC [eupatilin],IC50,PPARα [2],1180 nM
